Experiment [1] in a line: viability of uninfected HEp-2 cells – cell-based, HTS, cytotoxicity control for RSV inhibitor project, dose response (AID 2410). It counts as functional. To be noted: human respiratory syncytial virus.
Experiment [2] deals with E3 ubiquitin-protein ligase XIAP (Homo sapiens, UniProt P98170). The experiment can be described thus: Counter Screen using XIAP-Bir3 for Chemical Antagonists of Bir1/2 domains of IAP-family anti-apoptotic proteins. [Related pubchem assays (depositor defined):AID1018, AID1449, AID1514, AID1638, AID1749, AID1750, AID488957, AID488963]. (In general: The purpose of a counterscreen is to sort out artefacts and off-target activity.)
E3 ubiquitin-protein ligase XIAP, sequence (P98170 whole entry): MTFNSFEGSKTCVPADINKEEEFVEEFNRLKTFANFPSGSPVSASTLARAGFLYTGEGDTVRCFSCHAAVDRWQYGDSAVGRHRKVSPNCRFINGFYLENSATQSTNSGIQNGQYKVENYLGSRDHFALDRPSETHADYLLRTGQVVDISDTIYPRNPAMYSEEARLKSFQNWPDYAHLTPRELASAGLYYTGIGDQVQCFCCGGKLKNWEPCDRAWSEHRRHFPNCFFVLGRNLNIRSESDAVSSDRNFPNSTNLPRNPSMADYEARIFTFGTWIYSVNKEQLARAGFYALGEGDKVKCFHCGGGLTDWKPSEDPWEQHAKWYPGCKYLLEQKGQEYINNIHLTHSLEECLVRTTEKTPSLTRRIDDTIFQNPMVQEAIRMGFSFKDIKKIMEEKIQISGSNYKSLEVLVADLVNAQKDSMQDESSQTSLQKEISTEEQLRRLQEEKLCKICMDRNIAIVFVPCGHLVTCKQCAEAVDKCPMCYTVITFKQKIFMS

Experiment [3] addresses Eukaryotic translation initiation factor 4E (Mus musculus, UniProt P63073). Description: blockers of eIF4G binding by eIF4E – biochemical, TR-FRET, dose response (AID 855).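 Also: potency for disrupting eIF4E binding to eIF4GI seen as loss of FRET.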 It counts as functional.
The target of experiment [4] is Dual specificity protein phosphatase 3 (Homo sapiens, UniProt P51452). Description: SAR VHR1 Fluorescent Assay for In Vitro dose response studies Set 2. [Related pubchem assays (depositor defined):AID1654, AID1661, AID1878]. It counts as functional.
Dual specificity protein phosphatase 3, sequence (P51452 whole entry): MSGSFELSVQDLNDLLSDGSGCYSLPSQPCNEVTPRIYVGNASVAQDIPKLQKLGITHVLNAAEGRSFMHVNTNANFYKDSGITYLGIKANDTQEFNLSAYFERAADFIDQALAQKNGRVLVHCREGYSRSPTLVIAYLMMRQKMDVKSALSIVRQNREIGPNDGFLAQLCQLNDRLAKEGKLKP
The target in experiment [5] is T1, X-box-binding protein 1 (Homo sapiens, UniProt P17861).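 Also: confirmatory dose-response counter-screen serving a CHOP assay.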
T1 sequence (P17861 whole entry): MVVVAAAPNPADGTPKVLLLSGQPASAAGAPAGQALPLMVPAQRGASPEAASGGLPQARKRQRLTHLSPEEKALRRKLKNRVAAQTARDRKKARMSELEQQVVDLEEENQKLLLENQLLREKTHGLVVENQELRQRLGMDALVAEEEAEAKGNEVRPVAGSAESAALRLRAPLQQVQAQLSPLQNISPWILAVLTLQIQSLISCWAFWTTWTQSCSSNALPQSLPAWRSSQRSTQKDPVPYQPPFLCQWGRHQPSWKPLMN
The format is functional, Cricetulus griseus.

For experiment [6], the target named is DNA (cytosine-5)-methyltransferase 1 (Homo sapiens, UniProt P26358). The experiment can be described thus: inhibition of DNA methylation by DNMT1 – biochemical, fluorescent molecular beacon, confirmation (AID 602386). The format is functional.
DNA (cytosine-5)-methyltransferase 1, sequence (P26358 whole entry): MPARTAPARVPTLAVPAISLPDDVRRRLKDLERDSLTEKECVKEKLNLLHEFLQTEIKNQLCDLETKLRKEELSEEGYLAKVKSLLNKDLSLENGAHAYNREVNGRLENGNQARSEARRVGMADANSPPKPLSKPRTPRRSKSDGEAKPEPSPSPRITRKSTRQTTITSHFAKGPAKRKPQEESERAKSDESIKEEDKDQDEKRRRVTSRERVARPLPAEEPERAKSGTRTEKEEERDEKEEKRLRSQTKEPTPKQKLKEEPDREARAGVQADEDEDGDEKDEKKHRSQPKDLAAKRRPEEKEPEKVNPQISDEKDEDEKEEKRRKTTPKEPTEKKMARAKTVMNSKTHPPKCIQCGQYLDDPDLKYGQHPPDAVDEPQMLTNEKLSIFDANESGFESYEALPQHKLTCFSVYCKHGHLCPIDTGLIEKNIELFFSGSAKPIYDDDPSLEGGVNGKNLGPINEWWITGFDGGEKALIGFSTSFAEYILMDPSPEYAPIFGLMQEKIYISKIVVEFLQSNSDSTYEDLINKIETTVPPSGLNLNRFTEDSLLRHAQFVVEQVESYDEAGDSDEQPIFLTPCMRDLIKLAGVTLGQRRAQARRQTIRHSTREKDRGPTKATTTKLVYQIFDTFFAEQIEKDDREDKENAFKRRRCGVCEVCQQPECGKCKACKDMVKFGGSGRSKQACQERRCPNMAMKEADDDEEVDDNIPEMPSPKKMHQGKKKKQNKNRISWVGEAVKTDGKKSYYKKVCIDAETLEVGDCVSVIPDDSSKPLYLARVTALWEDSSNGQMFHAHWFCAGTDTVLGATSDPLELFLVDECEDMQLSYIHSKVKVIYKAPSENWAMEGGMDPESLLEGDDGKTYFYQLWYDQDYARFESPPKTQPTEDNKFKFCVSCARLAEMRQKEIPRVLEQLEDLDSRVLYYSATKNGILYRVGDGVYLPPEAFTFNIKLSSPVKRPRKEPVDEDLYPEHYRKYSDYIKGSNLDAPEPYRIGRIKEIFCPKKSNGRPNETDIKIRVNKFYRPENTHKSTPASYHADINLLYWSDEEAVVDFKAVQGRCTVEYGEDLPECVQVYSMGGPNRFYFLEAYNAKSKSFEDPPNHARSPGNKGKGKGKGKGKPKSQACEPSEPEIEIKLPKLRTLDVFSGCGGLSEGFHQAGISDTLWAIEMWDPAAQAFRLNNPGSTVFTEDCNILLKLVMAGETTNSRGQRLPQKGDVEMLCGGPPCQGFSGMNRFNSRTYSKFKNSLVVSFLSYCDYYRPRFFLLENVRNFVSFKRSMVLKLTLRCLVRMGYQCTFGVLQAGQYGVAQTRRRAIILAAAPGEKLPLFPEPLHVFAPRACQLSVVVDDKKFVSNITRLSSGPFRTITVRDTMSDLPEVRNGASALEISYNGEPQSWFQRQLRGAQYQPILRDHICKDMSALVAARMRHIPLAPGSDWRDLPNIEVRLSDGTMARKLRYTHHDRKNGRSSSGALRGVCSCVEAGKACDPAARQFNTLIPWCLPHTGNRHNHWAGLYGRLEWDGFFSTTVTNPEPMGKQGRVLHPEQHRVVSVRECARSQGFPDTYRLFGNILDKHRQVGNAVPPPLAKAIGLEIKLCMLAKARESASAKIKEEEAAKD
A short description of experiment [7]: cells. It counts as functional, cell-based.
A short description of experiment [8]: alpha-synuclein stem-loop luciferase translation blockers – H4 neuroglioma cells, luminescence, confirmation (AID 1988). It counts as functional, cell-based.
The nature of experiment [9]: Luminescence-based dose response cell-based high throughput screening assay for cytotoxic compounds using the IEC-6 intestinal epithelial cell line. [Related pubchem assays: 1858 (Summary AID.), 1825 (Counterscreen.), 1907 (Confirmation screen.)]. The format is functional.
Experiment [10] deals with Sphingosine 1-phosphate receptor 1 (Homo sapiens, UniProt P21453). The format is functional.
Sphingosine 1-phosphate receptor 1, sequence (P21453 whole entry): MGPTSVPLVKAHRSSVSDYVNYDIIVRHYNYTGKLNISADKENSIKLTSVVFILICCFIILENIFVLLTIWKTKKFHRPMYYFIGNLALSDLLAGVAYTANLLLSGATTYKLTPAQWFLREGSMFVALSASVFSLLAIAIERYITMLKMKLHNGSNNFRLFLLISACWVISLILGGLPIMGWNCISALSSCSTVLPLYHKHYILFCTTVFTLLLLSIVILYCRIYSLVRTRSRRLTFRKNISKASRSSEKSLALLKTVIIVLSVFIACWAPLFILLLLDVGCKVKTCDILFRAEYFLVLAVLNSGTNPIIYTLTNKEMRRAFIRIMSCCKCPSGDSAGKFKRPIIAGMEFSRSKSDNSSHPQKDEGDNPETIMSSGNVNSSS
In experiment [11] the target is T2, C-C chemokine receptor type 6 (Homo sapiens, UniProt P51684).
T2 sequence (P51684 whole entry): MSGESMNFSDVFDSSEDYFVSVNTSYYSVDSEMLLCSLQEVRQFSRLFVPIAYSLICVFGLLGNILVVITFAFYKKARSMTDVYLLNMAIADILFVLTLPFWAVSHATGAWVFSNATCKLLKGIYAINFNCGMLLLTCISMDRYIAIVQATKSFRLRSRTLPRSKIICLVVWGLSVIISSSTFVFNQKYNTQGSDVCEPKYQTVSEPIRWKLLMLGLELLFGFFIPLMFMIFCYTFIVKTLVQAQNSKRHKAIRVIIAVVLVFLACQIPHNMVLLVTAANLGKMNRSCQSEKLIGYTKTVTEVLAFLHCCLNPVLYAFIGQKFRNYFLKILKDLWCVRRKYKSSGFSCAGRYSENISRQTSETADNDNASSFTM
Description: antagonism of CCR6 beta-arrestin recruitment – cell-based, luminescent beta-arrestin readout, dose response (AID 504728). It counts as functional. For orientation: Activated receptors often draw arrestin, which recruitment assays turn into a signal.

The target in experiment [12] is Dual specificity tyrosine-phosphorylation-regulated kinase 1A (Rattus norvegicus, UniProt Q63470). It counts as biochemical, Homo sapiens.
The target in experiment [13] is T3, Sentrin-specific protease 8 (Homo sapiens, UniProt Q96LD8).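 Also: kinetic enzyme assay of SENP8 cleaving a Nedd8 protein substrate, dose-response confirmation of screening hits.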
T3 sequence (Q96LD8 whole entry): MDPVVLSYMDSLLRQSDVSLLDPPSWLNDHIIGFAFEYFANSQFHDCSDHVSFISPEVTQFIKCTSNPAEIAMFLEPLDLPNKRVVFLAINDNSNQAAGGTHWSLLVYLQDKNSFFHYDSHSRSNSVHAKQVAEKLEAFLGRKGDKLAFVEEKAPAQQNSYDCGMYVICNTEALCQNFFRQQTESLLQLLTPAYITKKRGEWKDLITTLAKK
It counts as functional.

For experiment [14], the target named is Transitional endoplasmic reticulum ATPase (Homo sapiens, UniProt P55072, C522A). Description: C522A mutant p97 ATPase inhibitors, dose response, counter-screen for p97 inhibitor project, biochemical, luminescence (AID 1544).
Transitional endoplasmic reticulum ATPase (Homo sapiens, UniProt P55072, C522A), sequence (P55072 2-806 C522A limits assumed): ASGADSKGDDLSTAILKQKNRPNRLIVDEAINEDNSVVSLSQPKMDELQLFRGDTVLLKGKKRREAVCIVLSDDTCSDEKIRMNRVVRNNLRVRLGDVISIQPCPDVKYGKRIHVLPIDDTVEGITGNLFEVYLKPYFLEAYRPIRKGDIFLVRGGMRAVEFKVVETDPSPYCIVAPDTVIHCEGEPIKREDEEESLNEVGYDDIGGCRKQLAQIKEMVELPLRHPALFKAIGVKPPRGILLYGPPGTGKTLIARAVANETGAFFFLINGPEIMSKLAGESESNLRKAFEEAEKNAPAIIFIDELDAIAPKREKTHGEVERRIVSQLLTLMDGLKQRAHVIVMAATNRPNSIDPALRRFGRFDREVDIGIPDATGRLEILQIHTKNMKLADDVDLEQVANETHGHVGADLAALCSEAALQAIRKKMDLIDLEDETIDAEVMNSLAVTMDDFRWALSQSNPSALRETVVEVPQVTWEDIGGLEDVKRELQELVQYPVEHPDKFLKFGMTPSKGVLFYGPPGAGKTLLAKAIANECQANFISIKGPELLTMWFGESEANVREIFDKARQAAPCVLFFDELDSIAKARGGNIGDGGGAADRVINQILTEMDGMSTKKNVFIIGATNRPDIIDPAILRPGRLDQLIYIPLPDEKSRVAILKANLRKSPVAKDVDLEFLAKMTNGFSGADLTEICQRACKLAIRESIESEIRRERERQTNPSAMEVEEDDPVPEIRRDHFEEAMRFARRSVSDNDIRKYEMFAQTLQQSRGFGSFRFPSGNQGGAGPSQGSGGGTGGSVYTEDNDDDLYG
Experiment [15] has as its target Transitional endoplasmic reticulum ATPase (Homo sapiens, UniProt P55072). Description: p97 ATPase inhibitors, dose response, biochemical (AID 1534).

Structures are written as SMILES. Active and inactive are the calls of the source.

As usually defined, the CC50 is the concentration that lowers cell viability or growth by half. One may read the IC50 as the midpoint of a concentration-inhibition curve. A word on the EC50: it is the concentration giving half of the maximal effect. Usually AC50 stands for the concentration at which the activity in the assay is half-maximal.

Transitional endoplasmic reticulum ATPase (Homo sapiens, UniProt P55072), sequence (P55072 whole entry): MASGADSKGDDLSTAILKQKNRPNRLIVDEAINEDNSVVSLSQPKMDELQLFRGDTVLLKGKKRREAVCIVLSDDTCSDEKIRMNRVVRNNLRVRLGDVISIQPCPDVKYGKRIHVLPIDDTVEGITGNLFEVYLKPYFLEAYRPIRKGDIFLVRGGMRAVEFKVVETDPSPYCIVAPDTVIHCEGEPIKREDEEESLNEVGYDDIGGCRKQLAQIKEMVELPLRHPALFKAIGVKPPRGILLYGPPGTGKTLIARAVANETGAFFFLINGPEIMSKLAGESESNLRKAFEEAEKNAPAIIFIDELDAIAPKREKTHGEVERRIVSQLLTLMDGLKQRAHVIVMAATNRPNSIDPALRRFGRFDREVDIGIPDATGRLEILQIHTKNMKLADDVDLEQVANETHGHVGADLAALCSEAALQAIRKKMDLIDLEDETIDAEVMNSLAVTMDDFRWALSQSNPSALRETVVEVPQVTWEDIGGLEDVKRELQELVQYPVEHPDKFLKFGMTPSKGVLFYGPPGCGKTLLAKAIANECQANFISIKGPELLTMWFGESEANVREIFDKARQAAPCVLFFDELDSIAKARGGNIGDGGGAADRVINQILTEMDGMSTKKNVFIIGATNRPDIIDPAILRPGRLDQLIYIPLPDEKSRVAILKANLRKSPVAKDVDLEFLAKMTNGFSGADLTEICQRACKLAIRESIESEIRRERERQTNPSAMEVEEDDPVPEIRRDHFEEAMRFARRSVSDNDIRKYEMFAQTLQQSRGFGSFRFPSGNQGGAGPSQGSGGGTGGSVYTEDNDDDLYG
Eukaryotic translation initiation factor 4E, sequence (P63073 whole entry): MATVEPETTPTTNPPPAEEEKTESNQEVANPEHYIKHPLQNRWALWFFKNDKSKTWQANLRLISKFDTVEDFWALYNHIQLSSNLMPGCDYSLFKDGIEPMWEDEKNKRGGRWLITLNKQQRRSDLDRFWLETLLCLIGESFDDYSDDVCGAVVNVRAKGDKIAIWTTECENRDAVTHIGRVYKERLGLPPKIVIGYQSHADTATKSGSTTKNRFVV

Turning to `CCc1nnc(NS(=O)(=O)c2ccc(NC(=S)NC(=O)/C=C/c3ccc(C(C)C)cc3)cc2)s1`, the CC50 in experiment [1] is 17.2 µM (active). Further, the IC50 in [2] was > 20 µM (inactive); in experiment [3] it was 22.9 µM (active); in experiment [4], 15 µM (active); in [6], 6.16 µM (active). Besides, in experiment [5], the “Absolute IC50 (XBP1)” value came to 10 µM.

For `O=C(/C=C/c1ccco1)Nc1ccc(Oc2ccccc2)cc1`, in [7], the EC50 is 6.08 µM (active).

`O=C1C(Nc2ccc(O)cc2)=C/C(=N/S(=O)(=O)c2cccs2)c2ccccc21`: the EC50 in experiment [8] was 5.59 µM (active). Besides, the results for the IC50 in experiment [9], in experiment [10] and in experiment [11] were 0.428 µM (active), 4.23 µM (active) and > 66.6 µM (inactive), respectively. Besides, in experiment [12], the AC50 is 0.883 µM (active).

With `COC(=O)C(O)(c1c(C)[nH]n(-c2ccccc2)c1=O)C(F)(F)F` (stereo not given), the IC50 in experiment [13] is 1.15 µM (active).

Consider `CC1CC(=O)c2c(cc3c(-c4c(O)cc(O)c5c(O)c6c(cc45)OC(C)CC6=O)c(O)cc(O)c3c2O)O1` (stereo not given) [CEPHALOCHROMIN], for which the IC50 is > 50 µM (not active) in experiment [14] and 43.9 µM (not active) in experiment [15].

These data come from ChEMBL document CHEMBL1201862, “PubChem BioAssay data set” (2004).
